Results taken from patent US7445765B2, “Radiopharmaceutical for diagnostic imaging containing a technetium-99m nitride heterocomplex” (Nihon Medi-Physics Co., Ltd., priority 2000, dated 2008).
Blank lines part the entries; values can stand above or below the compound they belong to.

Test: Biodistribution of the 99mTc(N) heterocomplexes in rats (organ uptake, heart accumulation, heart/lung and heart/liver ratios)
Format: in vivo, female Sprague-Dawley rats
Details: rats
Description: The biodistribution was measured by using female Sprague-Dawley rats (SD rats) weighing 200 g to 250 g. Each of the ^99mTc(N) heterocomplexes purified in the manner described above was diluted with phosphate buffer (0.1 M, pH=7.4) to obtain a final solution having an ethanol content of 10%. After the SD rats were anesthetized with an intramuscular injection of a mixture of ketamine (80 mg/kg) and xilazine (19 mg/kg), the jugular vein of each rat was surgically exposed and 100 μL (300 to 370 kBq) of the solution containing each ^99mTc(N) heterocomplexes prepared in the manner described above was injected in the jugular vein. The rats (n=3) were sacrificed by cervical dislocation at different times post injection. The blood was withdrawn from the heart through a syringe and counted. It was assumed that the whole blood content was 6.5% of the total body weight. The organs were excised from the rats, washed with physiological saline, weighed, and counted in a NaI well counter.
For comparison, Tables 19 and 20 show the results, obtained in the same manner as above, of measuring the biodistribution of (^99mTc) (MIBI) and (^99mTc) (Tf) which have been used as pharmaceuticals for diagnostic imaging for blood flow in myocardium.
Tables 21 to 23 show data showing the variations with time of heart accumulation, heart/lung ratios and heart/liver ratios for the ^99mTc(N) heterocomplexes of the present invention.

- Biodistribution, Adrenal glands (0 min): 2.80 ± 0.17 % ID/g
- Biodistribution, Blood (0 min): 0.34 ± 0.07 % ID/g
- Biodistribution, Brain (0 min): 0.26 ± 0.01 % ID/g
- Biodistribution, Heart (0 min): 3.56 ± 0.22 % ID/g
- Biodistribution, Intestine (0 min): 3.55 ± 0.37 % ID/g
- Biodistribution, Kidneys (0 min): 9.23 ± 0.62 % ID/g
- Biodistribution, Liver (0 min): 1.36 ± 0.12 % ID/g
- Biodistribution, Lungs (0 min): 1.65 ± 0.08 % ID/g
- Biodistribution, Muscle (0 min): 0.24 ± 0.04 % ID/g
- Biodistribution, Spleen (0 min): 2.65 ± 0.26 % ID/g
- Biodistribution, Submaxillary glands (0 min): 1.43 ± 0.41 % ID/g
- Biodistribution, Adrenal glands (2 min): 1.60 ± 0.01 % ID/g
- Biodistribution, Blood (2 min): 0.11 ± 0.01 % ID/g
- Biodistribution, Brain (2 min): 0.04 ± 0.01 % ID/g
- Biodistribution, Heart (2 min): 3.25 ± 0.17 % ID/g
- Biodistribution, Intestine (2 min): 3.71 ± 0.01 % ID/g
- Biodistribution, Kidneys (2 min): 10.12 ± 0.15 % ID/g
- Biodistribution, Liver (2 min): 1.88 ± 0.08 % ID/g
- Biodistribution, Lungs (2 min): 1.18 ± 0.13 % ID/g
- Biodistribution, Muscle (2 min): 0.14 ± 0.00 % ID/g
- Biodistribution, Spleen (2 min): 2.76 ± 0.66 % ID/g
- Biodistribution, Submaxillary glands (2 min): 1.01 ± 0.23 % ID/g
- Biodistribution, Adrenal glands (10 min): 3.28 ± 0.39 % ID/g
- Biodistribution, Blood (10 min): 0.07 ± 0.01 % ID/g
- Biodistribution, Brain (10 min): 0.05 ± 0.01 % ID/g
- Biodistribution, Heart (10 min): 3.37 ± 0.45 % ID/g
- Biodistribution, Intestine (10 min): 5.40 ± 0.33 % ID/g
- Biodistribution, Kidneys (10 min): 11.45 ± 1.62 % ID/g
- Biodistribution, Liver (10 min): 2.21 ± 0.27 % ID/g
- Biodistribution, Lungs (10 min): 1.36 ± 0.31 % ID/g
- Biodistribution, Muscle (10 min): 0.18 ± 0.01 % ID/g
- Biodistribution, Spleen (10 min): 3.16 ± 0.62 % ID/g
- Biodistribution, Submaxillary glands (10 min): 1.12 ± 0.12 % ID/g
- Biodistribution, Adrenal glands (20 min): 3.05 ± 0.04 % ID/g
- Biodistribution, Blood (20 min): 0.05 ± 0.01 % ID/g
- Biodistribution, Brain (20 min): 0.04 ± 0.01 % ID/g
- Biodistribution, Heart (20 min): 3.16 ± 0.22 % ID/g
- Biodistribution, Intestine (20 min): 4.90 ± 0.23 % ID/g
- Biodistribution, Kidneys (20 min): 8.14 ± 1.30 % ID/g
- Biodistribution, Liver (20 min): 1.98 ± 0.60 % ID/g
- Biodistribution, Lungs (20 min): 0.99 ± 0.11 % ID/g
- Biodistribution, Muscle (20 min): 0.15 ± 0.05 % ID/g
- Biodistribution, Spleen (20 min): 2.11 ± 0.18 % ID/g
- Biodistribution, Submaxillary glands (20 min): 1.07 ± 0.04 % ID/g
- Biodistribution, Adrenal glands (30 min): 3.49 ± 0.67 % ID/g
- Biodistribution, Blood (30 min): 0.05 ± 0.01 % ID/g
- Biodistribution, Brain (30 min): 0.04 ± 0.02 % ID/g
- Biodistribution, Heart (30 min): 3.70 ± 0.04 % ID/g
- Biodistribution, Intestine (30 min): 5.42 ± 0.05 % ID/g
- Biodistribution, Kidneys (30 min): 6.46 ± 0.11 % ID/g
- Biodistribution, Liver (30 min): 1.37 ± 0.22 % ID/g
- Biodistribution, Lungs (30 min): 0.72 ± 0.01 % ID/g
- Biodistribution, Muscle (30 min): 0.17 ± 0.05 % ID/g
- Biodistribution, Spleen (30 min): 2.89 ± 0.29 % ID/g
- Biodistribution, Submaxillary glands (30 min): 1.08 ± 0.09 % ID/g
- Biodistribution, Adrenal glands (60 min): 3.50 ± 0.60 % ID/g
- Biodistribution, Blood (60 min): 0.03 ± 0.00 % ID/g
- Biodistribution, Brain (60 min): 0.04 ± 0.00 % ID/g
- Biodistribution, Heart (60 min): 3.18 ± 0.17 % ID/g
- Biodistribution, Intestine (60 min): 6.49 ± 1.43 % ID/g
- Biodistribution, Kidneys (60 min): 4.42 ± 0.11 % ID/g
- Biodistribution, Liver (60 min): 1.57 ± 0.11 % ID/g
- Biodistribution, Lungs (60 min): 0.47 ± 0.24 % ID/g
- Biodistribution, Muscle (60 min): 0.18 ± 0.01 % ID/g
- Biodistribution, Spleen (60 min): 1.88 ± 0.15 % ID/g
- Biodistribution, Submaxillary glands (60 min): 1.17 ± 0.05 % ID/g
- Biodistribution, Adrenal glands (120 min): 2.43 ± 0.13 % ID/g
- Biodistribution, Blood (120 min): 0.02 ± 0.00 % ID/g
- Biodistribution, Brain (120 min): 0.03 ± 0.00 % ID/g
- Biodistribution, Heart (120 min): 3.04 ± 0.14 % ID/g
- Biodistribution, Intestine (120 min): 4.15 ± 1.02 % ID/g
- Biodistribution, Kidneys (120 min): 3.49 ± 0.05 % ID/g
- Biodistribution, Liver (120 min): 1.02 ± 0.23 % ID/g
- Biodistribution, Lungs (120 min): 0.47 ± 0.06 % ID/g
- Biodistribution, Muscle (120 min): 0.28 ± 0.05 % ID/g
- Biodistribution, Spleen (120 min): 1.23 ± 0.18 % ID/g
- Biodistribution, Submaxillary glands (120 min): 1.19 ± 0.05 % ID/g
Compound: [99Tc].[C-]#[N+]CC(C)(C)OC.[C-]#[N+]CC(C)(C)OC.[C-]#[N+]CC(C)(C)OC.[C-]#[N+]CC(C)(C)OC.[C-]#[N+]CC(C)(C)OC.[C-]#[N+]CC(C)(C)OC [(^99mTc) (MIBI), reference compound]

- Biodistribution, Adrenal glands (0 min): 2.60 % dose/g
- Biodistribution, Blood (0 min): 1.42 % dose/g
- Biodistribution, Brain (0 min): 0.18 % dose/g
- Biodistribution, Heart (0 min): 2.26 % dose/g
- Biodistribution, Intestine (0 min): 2.91 % dose/g
- Biodistribution, Kidneys (0 min): 5.56 % dose/g
- Biodistribution, Liver (0 min): 3.59 % dose/g
- Biodistribution, Lungs (0 min): 3.87 % dose/g
- Biodistribution, Muscle (0 min): 0.06 % dose/g
- Biodistribution, Spleen (0 min): 1.68 % dose/g
- Biodistribution, Submax. glands (0 min): 1.17 % dose/g
- Biodistribution, Adrenal glands (2 min): 3.49 % dose/g
- Biodistribution, Blood (2 min): 0.17 % dose/g
- Biodistribution, Brain (2 min): 0.03 % dose/g
- Biodistribution, Heart (2 min): 1.241 % dose/g
- Biodistribution, Intestine (2 min): 3.54 % dose/g
- Biodistribution, Kidneys (2 min): 9.57 % dose/g
- Biodistribution, Liver (2 min): 5.94 % dose/g
- Biodistribution, Lungs (2 min): 1.25 % dose/g
- Biodistribution, Muscle (2 min): 0.17 % dose/g
- Biodistribution, Spleen (2 min): 3.85 % dose/g
- Biodistribution, Submax. glands (2 min): 1.26 % dose/g
- Biodistribution, Adrenal glands (10 min): 4.48 % dose/g
- Biodistribution, Blood (10 min): 0.06 % dose/g
- Biodistribution, Brain (10 min): 0.03 % dose/g
- Biodistribution, Heart (10 min): 1.39 % dose/g
- Biodistribution, Intestine (10 min): 6.21 % dose/g
- Biodistribution, Kidneys (10 min): 9.80 % dose/g
- Biodistribution, Liver (10 min): 7.71 % dose/g
- Biodistribution, Lungs (10 min): 1.10 % dose/g
- Biodistribution, Muscle (10 min): 0.16 % dose/g
- Biodistribution, Spleen (10 min): 4.00 % dose/g
- Biodistribution, Submax. glands (10 min): 1.27 % dose/g
- Biodistribution, Adrenal glands (20 min): 3.19 % dose/g
- Biodistribution, Blood (20 min): 0.03 % dose/g
- Biodistribution, Brain (20 min): 0.03 % dose/g
- Biodistribution, Heart (20 min): 1.18 % dose/g
- Biodistribution, Intestine (20 min): 8.54 % dose/g
- Biodistribution, Kidneys (20 min): 8.18 % dose/g
- Biodistribution, Liver (20 min): 6.55 % dose/g
- Biodistribution, Lungs (20 min): 0.80 % dose/g
- Biodistribution, Muscle (20 min): 0.09 % dose/g
- Biodistribution, Spleen (20 min): 3.13 % dose/g
- Biodistribution, Submax. glands (20 min): 1.03 % dose/g
- Biodistribution, Adrenal glands (30 min): 3.08 % dose/g
- Biodistribution, Blood (30 min): 0.05 % dose/g
- Biodistribution, Brain (30 min): 0.02 % dose/g
- Biodistribution, Heart (30 min): 1.05 % dose/g
- Biodistribution, Intestine (30 min): 7.75 % dose/g
- Biodistribution, Kidneys (30 min): 7.52 % dose/g
- Biodistribution, Liver (30 min): 4.66 % dose/g
- Biodistribution, Lungs (30 min): 0.60 % dose/g
- Biodistribution, Muscle (30 min): 0.11 % dose/g
- Biodistribution, Spleen (30 min): 2.43 % dose/g
- Biodistribution, Submax. glands (30 min): 1.08 % dose/g
- Biodistribution, Adrenal glands (60 min): 3.49 % dose/g
- Biodistribution, Blood (60 min): 0.02 % dose/g
- Biodistribution, Brain (60 min): 0.01 % dose/g
- Biodistribution, Heart (60 min): 1.10 % dose/g
- Biodistribution, Intestine (60 min): 8.37 % dose/g
- Biodistribution, Kidneys (60 min): 6.60 % dose/g
- Biodistribution, Liver (60 min): 3.55 % dose/g
- Biodistribution, Lungs (60 min): 0.48 % dose/g
- Biodistribution, Muscle (60 min): 0.12 % dose/g
- Biodistribution, Spleen (60 min): 2.64 % dose/g
- Biodistribution, Submax. glands (60 min): 1.30 % dose/g
- Biodistribution, Adrenal glands (120 min): 3.47 % dose/g
- Biodistribution, Blood (120 min): 0.02 % dose/g
- Biodistribution, Brain (120 min): 0.01 % dose/g
- Biodistribution, Heart (120 min): 1.29 % dose/g
- Biodistribution, Intestine (120 min): 9.70 % dose/g
- Biodistribution, Kidneys (120 min): 8.83 % dose/g
- Biodistribution, Liver (120 min): 2.55 % dose/g
- Biodistribution, Lungs (120 min): 0.33 % dose/g
- Biodistribution, Muscle (120 min): 0.14 % dose/g
- Biodistribution, Spleen (120 min): 2.02 % dose/g
- Biodistribution, Submax. glands (120 min): 1.36 % dose/g
Compound: CCOCCC[P]1(CCCOCC)CCN(CCOCC)CC[P](CCCOCC)(CCCOCC)[99Tc+]12(#[N])[S]C(N(CCOCC)CCOCC)=[S]2 [PNP6•DBODC]

- Heart/liver ratio in biodistribution (0 min): 6.11
- Heart/lung ratio in biodistribution (0 min): 0.76
- Heart/liver ratio in biodistribution (2 min): 1.48
- Heart/lung ratio in biodistribution (2 min): 3.98
- Heart/liver ratio in biodistribution (10 min): 2.29
- Heart/lung ratio in biodistribution (10 min): 4.19
- Heart/liver ratio in biodistribution (20 min): 3.78
- Heart/lung ratio in biodistribution (20 min): 6.37
- Heart/liver ratio in biodistribution (30 min): 5.18
- Heart/lung ratio in biodistribution (30 min): 5.83
- Heart/liver ratio in biodistribution (60 min): 18.8
- Heart/lung ratio in biodistribution (60 min): 8.17
- Heart/liver ratio in biodistribution (120 min): 33.1
- Heart/lung ratio in biodistribution (120 min): 13.24
Compound: CCOCCN1CC[P](CCCOC)(CCCOC)[99Tc+]2(#[N])([S]C(N(CCOCC)CCOCC)=[S]2)[P](CCCOC)(CCCOC)CC1 [[^99mTc(N) (PNP5) (DBODC)^+]]
